Experiments:
primary cortical neurons = assay: Aβ1-42-induced primary cortical neuronal injury test (Luminescent Cell Viability Assay); type: cell-based, rat; details: single agent, pre-incubation 30 min before oligomerized Aβ1-42 50 μM, 24 h; edaravone 3.7 to 100 μM, dexborneol 1.2 to 100 μM; vs DMSO group
Description: A SD pregnant rat at 18 days of pregnancy was sacrificed by cervical dislocation, the uteruses of the rat were dissected, the brain of E18 fetal rat was taken out, the cerebral cortical tissue of the fetal rat was isolated into an ice-cold DMEM, the meninge and blood vessels were removed from the cortical tissue under a dissecting microscope, the cortical tissue was transferred to an ice-cold DMEM and minced (about 1 mm^3), and digested with trypsin at 37° C. for 10 min, the digestion was terminated with FBS, a Pasteur pipette was used to perform gentle pipetting and dispersing, and screening was then performed using a 200-mesh sieve. […] The cells were counted by a hemocytometer, diluted to 5×10^5 cells/ml with a complete medium, and seeded in a 96-well plate coated with PDL (100 μL/well) for culture. […]
The medium of the in vitro matured primary neurons was replaced with a complete medium containing different concentrations (1.2, 3.7, 11.1, 33.3, 100.0 μM) of edaravone (E), dexborneol (B) or an edaravone and dexborneol composition (EB), after incubation at 37° C. for 30 min, oligomerized Aβ1-42 (final concentration of 50 μM) was added, the culture was continued for 24 h, and the neuronal viability was tested. […] LUMbackground is the background reading of the cell-free medium well into which Luminescent Cell Viability Assay kit is added. […]

ICV-STZ model rats = assay: Morris water maze test in rats of intracerebroventricular STZ-induced dementia; type: in vivo, rat; details: edaravone 6 mg/kg (plus dexborneol 0.8, 1.2 or 2.4 mg/kg), intraperitoneal, once daily
Description: The experimental animals were divided into […]: sham surgery group, model group, edaravone group (6 mg/kg), edaravone and dexborneol (7.5:1) composition (edaravone 6 mg/kg, dexborneol 0.8 mg/kg), edaravone and dexborneol (5:1) composition (edaravone 6 mg/kg, dexborneol 1.2 mg/kg), and edaravone and dexborneol (2.5:1) composition (edaravone 6 mg/kg, dexborneol 2.4 mg/kg). The animals in the model group and sham surgery groups were given the corresponding volume of blank solvent (8% propylene glycol), all administrations were intraperitoneal injection administrations, and the administration volume is 10 ml/kg.
In addition to the sham surgery group, animals with successful surgery were randomly assigned to the model group and administration groups in order. […]
This trial lasted for 4 days. The platform was fixed in the target quadrant (SE quadrant) during the trial, water entry was performed from the water entry points of the four quadrants, respectively, animals were gently placed in the water facing the sign on the pool wall during training, the time (escape latency) for the animal to find the platform was recorded, and then the animal was allowed to stay on the platform for 10 s. […]

[1] = test system: mouse model of AlCl3/D-galactose-induced cognitive impairment; details: intraperitoneal for 15 consecutive days; cited from earlier work

With `CC1=NN(c2ccccc2)C(=O)C1` [edaravone, 3-methyl-1-phenyl-2-pyrazolin-5-one] the “inhibiting Aβ-induced neurotoxicity, increasing the cell viability” value (primary cortical neurons) was “capable of inhibiting Aβ-induced neurotoxicity in a concentration-dependent manner”, the “escape latency in water maze hidden platform trial, vs model group” value (ICV-STZ model rats) was “could significantly shorten the escape latency” and the “residence time in the target quadrant in water maze space probe trial, vs model group” value (ICV-STZ model rats) was “significantly prolonged”. For the same compound, the “cognitive function in water maze test and step-down test” value [1] was “significantly improves the cognitive function as tested by water maze test and step-down test”.

Source: patent US20260158002A1, “APPLICATION OF COMPOSITION CONTAINING EDARAVONE AND DEXBORNEOL IN IMPROVING OR TREATING COGNITIVE IMPAIRMENT” (NEURODAWN PHARMACEUTICAL CO., LTD., priority 2021, published 2026)
